Four compounds from article PMC6858952 (Clinical cancer research : an official journal of the …, 2019) can be followed below.

The subject of data set [1] is human organoids from normal pancreata (hN). Kind of data set: Organoid cytotoxicity assay. The conditions noted are these: 72 h, read-out: EC50 hN. Format: cell-based.
The test system of data set [2] is KPC mice (pancreatic ductal adenocarcinoma). Kind of data set: Survival study in tumor-bearing KPC mice. Format: in vivo, mouse.
For data set [3], the system named is mouse organoids from normal pancreata (mN). Kind of data set: Organoid cytotoxicity assay. It counts as cell-based. The conditions noted are these: 72 h, read-out: EC50 mN.
Data set [4] deals with hT3 organoid orthotopic xenografts in NSG mice. Kind of data set: Orthotopic xenografts of human tumor organoids, 7-day trial. It counts as in vivo, mouse.
Data set [5] has as its system mouse tumor organoids (mT). Kind of data set: Organoid cytotoxicity assay. Format: cell-based. The conditions noted are these: 72 h, read-out: EC50 mT.
Data set [6] can be described thus: Intratumoral gemcitabine pharmacokinetic analysis. Format: in vivo, mouse. The conditions noted are these: KPC tumors, with versus without MEKi and AKTi.

In the case of `NC1(c2ccc(-c3nc4ccn5c(=O)[nH]nc5c4cc3-c3ccccc3)cc2)CCC1` [AKTi, MK2206], the EC50 in data set [1] is 70 µM. Further, in data set [2], the “survival (in words)” value was “without extension in survival” and the “tumor growth (in words)” value was “reduced tumor growth”. Moreover, the concentration giving a half-maximal response (EC50) in data set [3] was determined as 0.14 µM.

As to `CCOc1cc2ncc(C#N)c(Nc3ccc(OCc4ccccn4)c(Cl)c3)c2cc1NC(=O)/C=C/CN(C)C` [ERBBi, neratinib], in data set [4], the “cell death by CC3 IHC (in words)” value is reported as “no effect on cell death” and the “cell proliferation by Ki67 IHC (in words)” value was “reduced cell proliferation”. For the same compound, the concentration giving a half-maximal response (EC50) in data set [5] stood at 1.2 µM.

Consider `Nc1ccn([C@@H]2O[C@H](CO)[C@@H](O)C2(F)F)c(=O)n1` [Gem, gemcitabine], for which the “intratumoral concentration of Gem and its metabolites” value in data set [6] is listed as “no differences in intratumoral concentration”. In data set [2], the “survival (in words)” value was “did not significantly impact” and the “tumor growth (in words)” value is listed as “did not significantly impact”.

In the case of `Cn1cnc2c(F)c(Nc3ccc(Br)cc3Cl)c(C(=O)NOCCO)cc21` [MEKi, selumetinib], in data set [1], the concentration giving a half-maximal response (EC50) was 12 µM. Besides, in data set [4], the “cell death by CC3 IHC (in words)” value is on record as “significantly increased” and the “cell proliferation by Ki67 IHC (in words)” value is “did not have any significant impact”. Besides, in data set [2], the “survival (in words)” value is listed as “did not significantly impact” and the “tumor growth (in words)” value is “did not significantly impact”. Also, the EC50 in data set [3] amounted to 2 µM.

As usually defined, the EC50 is the concentration needed to bring the measured effect to its halfway point.
